Experimental data taken from US11970448B2, “Monomers capable of dimerizing in an aqueous solution, and methods of using same” (CORNELL UNIVERSITY, priority 2011, dated 2024).
Structures can show the parent of a compound that is named as a salt. Where two headings read alike, the source gives them in different places.

Molecular target: T1, recominbant human tryptase, beta, from lung (Homo sapiens, UniProt P20231)
T1 construct: purchased Promega or Enzo Life Sciences G5631 or BML-SE418
Assay: Inhibition of tryptase activity by monomers and multimers (Boc-Gln-Ala-Arg-AMC fluorescence)
Type: biochemical
Conditions: monomers against tryptase
Procedure: Stock solutions of recominbant human tryptase, beta, from lung (Promega: catalog number G5631, or Enzo Life Sciences: catalog number BML-SE418) were made at 30 μM, in solution with 5 μM heparin sulfate and 1 M NaCl. Monomer tryptase inhibitor stock solutions were made at 50 mM in DMSO. Test substance plates were made at 1.2× the final concentration in assay buffer (50 mM HEPES, 150 mM NaCl, 100 μM EDTA, pH 7.4, 0.02% Tween-20). A final concentration of 1 nM tryptase was used. When required, test substances were diluted in water immediately before use in 10-fold serial dilutions. After the indicated incubation time, the test subtance-tryptase solution at 1.2× concentration, was diluted into assay buffer containing a final concentration of 200 μM N-tert-butoxycarbonyl-Gln-Ala-Arg-AMC HBr [AMC=7-amino-4-methylcoumarin] (Boc-Gln-Ala-Arg-AMC; Enzo Life Sciences: catalog number BML-P237) to a final volume of 50 μl in black opaque round bottom 96 well plates (Corning, catalog number 3792). The release of fluorescent AMC was immediately measured every 30 seconds over 15-30 minutes at an excitation wavelength of 367 nm, monitoring emission at 468 nm on a Spectramax M5 (Molecular Devices) microplate reader. The Softmax Pro (Molecular Devices) and Graphpad prism software were used to determine Vmax, and concentration-response curve IC50s, respectively.

[1] = Table 5, read-out: Monomer IC50 range
[2] = entry marked (1:10), read-out: IC50 range group of additional monomers marked (1:10)
[3] = read-out: IC50 range group of additional monomers (boronic acid, benzooxaborole, ligands)

T1 sequence (P20231 31-275): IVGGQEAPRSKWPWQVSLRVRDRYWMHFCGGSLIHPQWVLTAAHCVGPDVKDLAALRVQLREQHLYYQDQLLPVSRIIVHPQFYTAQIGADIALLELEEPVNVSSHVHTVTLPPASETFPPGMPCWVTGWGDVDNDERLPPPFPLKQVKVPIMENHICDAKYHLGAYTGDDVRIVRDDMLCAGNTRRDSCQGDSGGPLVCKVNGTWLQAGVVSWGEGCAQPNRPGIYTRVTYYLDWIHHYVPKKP

Compound: CC(C)(C)OC(=O)NCc1cccc(C2CCN(C(=O)c3cccc(NC(=O)C(O)C(C)(C)O)c3)CC2)c1 (centres unmarked) [T55D, tert-butyl 3-(1-(3-(2,3-dihydroxy-3-methylbutanamido)benzoyl)piperidin-4-yl)benzylcarbamate]
- IC50 [1]: 0.1 to 1000 nM
- IC50 [2]: 0.1 to 1000 nM

Compound: N=C(N)c1ccc2c(c1)C1(CCN(C(=O)c3cccc(-c4cccc(B(O)O)c4)c3)CC1)CO2 [T35SPAM, 3′-(5-carbamimidoyl-2H-spiro[benzofuran-3,4′-piperidine]-1′-ylcarbonyl)biphenyl-3-ylboronic acid]
- IC50 [3]: 0.1 to 1000 nM

Compound: NCc1cccc(C2CCN(C(=O)c3cc4c(B(O)O)cccc4[nH]3)CC2)c1 [T32, 2-(4-(3-(aminomethyl)phenyl)piperidine-1-carbonyl)-1H-indol-4-ylboronic acid]
- IC50 [1]: 1000 to 10000 nM
- IC50 [3]: 1000 to 10000 nM

Compound: NCc1cccc(C2CCN(C(=O)c3ccc4c(ccn4CC(O)(C(=O)O)c4ccccc4)c3)CC2)c1 (centres unmarked) [T83, 3-(5-(4-(3-(aminomethyl)phenyl)piperidine-1-carbonyl)-1H-indol-1-yl)-2-hydroxy-2-phenylpropanoic acid]
- IC50 [1]: 0.1 to 1000 nM
- IC50 [2]: 0.1 to 1000 nM

Compound: NCc1cccc(C2CCN(C(=O)c3ccc(C(N)=O)c(O)c3)CC2)c1 [T75, 4-(4-(3-(aminomethyl)phenyl)piperidine-1-carbonyl)-2-hydroxybenzamide]
- IC50 [1]: 1000 to 10000 nM
- IC50 [3]: 1000 to 10000 nM

Compound: NCc1cccc(C2CCN(C(=O)c3cccc4cc(CO)c(O)cc34)CC2)c1 [T44, (4-(3-(aminomethyl)phenyl)piperidin-1-yl)(7-hydroxy-6-(hydroxymethyl)naphthalen-1-yl)methanone]
- IC50 [1]: 1000 to 10000 nM
- IC50 [3]: 1000 to 10000 nM

Compound: NCc1cccc(C2CCN(C(=O)c3cccc(N4C[C@@H](O)[C@@H](O)C4)c3)CC2)c1 [T25B, (4-(3-(aminomethyl)phenyl)piperidin-1-yl)(3-((3S,4R)-3,4-dihydroxypyrrolidin-1-yl)phenyl)methanone]
- IC50 [1]: 0.1 to 1000 nM
- IC50 [2]: 0.1 to 1000 nM

Compound: NCc1ccc(F)c(C2CCN(C(=O)c3cccc(-c4cccc(B(O)O)c4)c3)CC2)c1 [T35F, 3′-(4-(5-(aminomethyl)-2-fluorophenyl)piperidine-1-carbonyl)biphenyl-3-ylboronic acid]
- IC50 [1]: 0.1 to 1000 nM
- IC50 [3]: 0.1 to 1000 nM

Compound: NCc1ccc(C(=O)NCc2ccc(OCC(=O)N3C[C@@H](O)[C@H](O)C3)cc2)cc1 [CF6, 4-(aminomethyl)-N-(4-(2-((3R,4R)-3,4-dihydroxypyrrolidin-1-yl)-2-oxoethoxy)benzyl)benzamide hydrochloride]
- IC50 [1]: 10000 to 65000 nM

Compound: NCc1cccc(C2CCN(C(=O)c3cccc(OCC(O)(C(=O)O)C4CCCC4)c3)CC2)c1 (centres unmarked) [T103, 3-(3-(4-(3-(aminomethyl)phenyl)piperidine-1-carbonyl)phenoxy)-2-cyclopentyl-2-hydroxypropanoic acid]
- IC50 [1]: 0.1 to 1000 nM
- IC50 [2]: 0.1 to 1000 nM

Compound: CC(C)(C)ONC(=O)c1ccc(C(=O)N2CCC3(CC2)COc2ccc(CN)cc23)cc1O [T75AOTBSPIRO]
- IC50 [3]: 0.1 to 1000 nM

Compound: NCc1ccc2c(c1)C1(CCN(C(=O)c3ccc(Cl)c(-c4cccc(B(O)O)c4)c3)CC1)CO2 [T109SPIRO]
- IC50 [3]: 0.1 to 1000 nM

Compound: Cc1c(CC(=O)N2CCC(c3cccc(CN)c3)CC2)c(=O)oc2cc(N(C)Cc3ccccc3B(O)O)ccc12 [T144]
- IC50 [3]: 1000 to 10000 nM

Compound: NCc1ccc2c(c1)C1(CCN(C(=O)c3ccc(C(=O)NOc4ccccc4)c(O)c3)CC1)CO2 [T75APSPIRO]
- IC50 [3]: 0.1 to 1000 nM

Compound: NCc1cccc(C2CCN(C(=O)C3CC4CC3C(O)C4O)CC2)c1 (racemic) [T140RACEENDO, (±) endo (4-(3-(aminomethyl)phenyl)piperidin-1-yl)-(5,6-syn-dihydroxybicyclo[2.2.1]heptan-2-yl)methanone]
- IC50 [3]: 1000 to 10000 nM

Compound: COc1cc(/C=C/C(=O)N2CCC(c3cccc(CN)c3)CC2)ccc1O [T24MON, (E)-1-(4-(3-(aminomethyl)phenyl)piperidin-1-yl)-3-(4-hydroxy-3-methoxyphenyl)prop-2-en-1-one]
- IC50 [1]: 1000 to 10000 nM

Compound: Cc1c(CC(=O)N2CCC(c3cccc(CN)c3)CC2)c(=O)oc2cc(O)c(O)cc12 [T99]
- IC50 [3]: 1000 to 10000 nM

Compound: NCc1cccc(C2CCN(C(=O)c3cc(O)c(O)c(Cl)c3)CC2)c1 [T78, (4-(3-(aminomethyl)phenyl)piperidin-1-yl)(3-chloro-4,5-dihydroxyphenyl)methanone]
- IC50 [1]: 0.1 to 1000 nM
- IC50 [3]: 0.1 to 1000 nM

Compound: NCc1cccc(C2CCN(C(=O)/C=C/c3cc(O)c(O)c(O)c3)CC2)c1 [T43, (E)-1-(4-(3-(aminomethyl)phenyl)piperidin-1-yl)-3-(3,4,5-trihydroxyphenyl)prop-2-en-1-one]
- IC50 [1]: 0.1 to 1000 nM
- IC50 [3]: 0.1 to 1000 nM

Compound: NCc1ccc2c(c1)C1(CCN(C(=O)c3ccc(CO)c(O)c3)CC1)CO2 [T74SPIRO]
- IC50 [3]: 0.1 to 1000 nM

Compound: CN(Cc1ccccc1B(O)O)c1cccc2c(C(=O)N3CCC(c4cccc(CN)c4)CC3)cccc12 [T143]
- IC50 [3]: 1000 to 10000 nM

Compound: NCc1cccc(C2CCN(C(=O)c3cccc(-c4ccc5c(c4)COB5O)c3)CC2)c1 [T36M, (4-(3-(aminomethyl)phenyl)piperidin-1-yl)(3-(1-hydroxy-1,3-dihydrobenzo[c][1,2]oxaborol-5-yl)phenyl)methanone]
- IC50 [1]: 0.1 to 1000 nM
- IC50 [3]: 0.1 to 1000 nM

Compound: NCc1cccc(C2CCN(C(=O)c3cccc(C(=O)N4C[C@@H](O)[C@@H](O)C4)c3)CC2)c1 [T26diol trans, (4-(3-(aminomethyl)phenyl)piperidin-1-yl)(3-((3S,4R)-3,4-dihydroxypyrrolidine-1-carbonyl)phenyl)methanone]
- IC50 [1]: 1000 to 10000 nM
- IC50 [3]: 1000 to 10000 nM

Compound: COc1ccc(C(=O)N2CCC(c3cccc(CN)c3)CC2)c(O)c1O [T127]
- IC50 [3]: 1000 to 10000 nM

Compound: NCc1cccc(C2CCN(C(=O)/C=C/c3cccc(B(O)O)c3)CC2)c1 [T34, (E)-3-(3-(4-(3-(aminomethyl)phenyl)piperidin-1-yl)-3-oxoprop-1-enyl)phenylboronic acid]
- IC50 [1]: 1000 to 10000 nM
- IC50 [3]: 1000 to 10000 nM

Compound: NCc1ccc(CNC(=O)N2CCN(C(=O)CNC(=O)C(O)CO)CC2)cc1 (centres unmarked) [CF13, N-(4-(aminomethyl)benzyl)-4-(2-(2,3-dihydroxypropanamido)acetyl)piperazine-1-carboxamide hydrochloride]
- IC50 [1]: 1000 to 10000 nM

Compound: NCc1cccc(C2CCN(C(=O)c3cccc(OCC(=O)N4C[C@@H](O)[C@@H](O)C4)c3)CC2)c1 [T29, 2-(3-(4-(3-(aminomethyl)phenyl)piperidine-1-carbonyl)phenoxy)-1-((3S,4R)-3,4-dihydroxypyrrolidin-1-yl)ethanone]
- IC50 [1]: 1000 to 10000 nM

Compound: CC(C)(C)OC(=O)NCc1cccc(C2CCN(C(=O)c3cccc(NC(=O)C(=O)C(C)(C)O)c3)CC2)c1 [T55, tert-butyl 3-(1-(3-(3-hydroxy-3-methyl-2-oxobutanamido)benzoyl)piperidin-4-yl)benzylcarbamate]
- IC50 [1]: 0.1 to 1000 nM

Compound: NCc1cccc(C2CCN(C(=O)c3cccc(OCCC(=O)N4C[C@@H](O)[C@@H](O)C4)c3)CC2)c1 [T53, 3-(3-(4-(3-(aminomethyl)phenyl)piperidine-1-carbonyl)phenoxy)-1-((3S,4R)-3,4-dihydroxypyrrolidin-1-yl)propan-1-one]
- IC50 [1]: 0.1 to 1000 nM
- IC50 [3]: 0.1 to 1000 nM

Compound: CC(C)(C)ONC(=O)c1ccc(C(=O)N2CCC(c3cccc(CN)c3)CC2)cc1O [T75AOTB]
- IC50 [3]: 1000 to 10000 nM

Compound: NCc1ccc2c(c1)C1(CCN(C(=O)c3ccc(OCC(O)CO)cc3)CC1)CO2 (centres unmarked) [CF15, (5-(aminomethyl)-2H-spiro[benzofuran-3,4′-piperidine]-1′-yl)(4-(2,3-dihydroxypropoxy)phenyl)methanone hydrochloride]
- IC50 [1]: 1000 to 10000 nM

Compound: NCc1cccc(C2CCN(C(=O)c3cnc4c(B(O)O)cccc4c3)CC2)c1 [T156]
- IC50 [3]: 0.1 to 1000 nM

Compound: NCc1cccc(C2CCN(C(=O)c3cccc(NC(=O)NCC(O)C(F)(F)F)c3)CC2)c1 (centres unmarked) [CF17, 1-(3-(4-(3-(aminomethyl)phenyl)piperidine-1-carbonyl)phenyl)-3-(3,3,3-trifluoro-2-hydroxypropyl)urea hydrochloride]
- IC50 [1]: 0.1 to 1000 nM

Compound: NCc1cccc(C2CCN(C(=O)/C=C/c3ccc(O)c(CO)c3)CC2)c1 [T40, (E)-1-(4-(3-(aminomethyl)phenyl)piperidin-1-yl)-3-(4-hydroxy-3-(hydroxymethyl)phenyl)prop-2-en-1-one]
- IC50 [1]: 1000 to 10000 nM
- IC50 [3]: 1000 to 10000 nM

Compound: NCc1cccc(C2CCN(C(=O)c3cccc(NC(=O)C4CC5CCC4C(O)C5O)c3)CC2)c1 (racemic) [T141EXOSYN, (±) exo-N-(3-(4-(3-(aminomethyl)phenyl)piperidine-1-carbonyl)phenyl)-5,6-syn-dihydroxybicyclo[2.2.2]octane-2-carboxamide.]
- IC50 [3]: 1000 to 10000 nM

Compound: NCc1cccc(C2CCN(C(=O)c3ccc(O)c(C(=O)NOc4ccccc4)c3)CC2)c1 [T92OPH]
- IC50 [3]: 1000 to 10000 nM

Compound: NCc1ccc(C(=O)NCc2ccc(OCCC(=O)N3CC(=O)[C@@H](O)C3)cc2)cc1 [CF10, (S)-4-(aminomethyl)-N-(4-(3-(3-hydroxy-4-oxopyrrolidin-1-yl)-3-oxopropoxy)benzyl)benzamide hydrochloride]
- IC50 [1]: 10000 to 65000 nM

Compound: Cc1cc(C(=O)N2CCC(c3cccc(CN)c3)CC2)cc(-c2cccc(B(O)O)c2)c1C [T107]
- IC50 [3]: 1000 to 10000 nM
